Results: US20260182582A1, “METHODS AND COMPOSITIONS FOR BIOPROTECTION OF TOMATOES FROM CLAVIBACTER MICHIGANENSIS SUBSP. MICHIGANENSIS” (The Royal Institution for the Advancement of …, priority 2018, published 2026)
“And” between values parts separate entries of the source, which are not always exact repeats. Identical values can stand only once.

Tested on: Cmm
Experiment: Agar well diffusion assay against Cmm
Format: cell-based, Clavibacter michiganensis subsp. michiganensis
Procedure: In addition, the antibacterial activity of various fractions and the purified antibiotic produced by B. pumilus was assessed via agar well diffusion assay. Cmm was grown as described above and a suspension of 100 μL was evenly spread over fresh NBYA plates using sterile spreader. Wells of 6 mm diameter were carefully made in the agar and 50 μL of the test fraction or antibiotic test sample extracted from B. pumilus was poured into the agar well. Sterilized distilled water served as a control treatment.
The antimicrobial activities of Micrococcin P1 at various concentrations were assessed via agar well diffusion assay. A cell suspension of Cmm was overlaid on NBYA and the plates were allowed to air dry. A 50 μL drop of Micrococcin P1 diluted in various concentrations were applied into agar well.

Substance: Micrococcin P1
- antibacterial activity against Cmm, zone of inhibition around the well (50 μL in 6 mm agar well, NBYA, 28° C., 3 days): antimicrobial activity against Cmm
- concentration having the most significant effects (highest concentration tested): 5 mg/L and 4.37 μM
- amount per well needed for growth inhibition zones (per well in 50 μL, NBYA, 3 days 28° C.): ≥ 7.8125 ng
- dose dependence of antibacterial activities (various concentrations, FIG. 7): increased proportional to the Micrococcin P1 concentrations
